Results taken from patent US4980378A, “Biodegradable absorption enhancers” (priority 1988, dated 1990).
Read-outs that look alike come from different tables or passages of the source.

Key:
[1] = Transdermal penetration of indomethacin from ointment across shed snake skin (vertical diffusion cell); format: in vitro ADME, black rat snake (Elahe obsoleta)
Method: Ointments were prepared by mixing 100 mg (1%) indomethancin, 500 mg (5%) penetration enhancer and 9400 mg (94%) petrolatum at 55°-60°C. to give a homogenous dispersion of indomethacin. In each transport study, 30 mg of ointment containing […] of indomethacin was applied.
(§1) A whole shed snake skin from the molt of adult Elahe obsoleta (black rat snake) was obtained from the Animal Care Unit of the University of Kansas. Only the dorsal side of the shed snake skin was used for in vitro penetration studies. The head and tail sections of the snake skin was removed and the remainder of the skin was cut randomly into sections of approximately 2 inches by 2 inches. Each piece of snake skin was hydrated overnight by first soaking the skin in water (about 5 to 10 minutes) until it could be stretched and then placing it on a plastic pan which held some water. The pan was floated on a water-bath at 32° C. overnight.
For the transport studies using ointments, approximately 30 mg of ointment prepared as described in Example 5 was smeared evenly on an area of the 2"×2" snake skin. The ointment was smeared into an essentially circular area approximately 1.77 cm^2 and having a diameter of approximately 15 mm. The snake skin was then mounted on top of the receptor cell of a vertical diffusion cell assembly in which a small magnetic bar was inserted and filled with an isotonic buffer. A rubber o-ring was placed on top of the skin followed by the placement of the donor cell. The two cells were clamped together and transferred to a water-bath (32° C.) which had several magnetic stirrers placed underneath to stir the contents of the diffusion cells. Samples from the cells were withdrawn periodically by gravity by inputting fresh isotonic buffer into the cell inlets. The first five drops were discarded and the following […] drops were collected for analysis. These nine drops of sample solution were approximately equivalent to about 0.20 ml.
The samples were analyzed for the concentration of indomethacin using a Perkin-Elmer ISS-100 HPLC apparatus with a Perkin-Elmer LC90 UV spectrophotometric detector and a Perkin-Elmer ISS-100 automatic sampler with the detection wavelength set at 260 nm. The peak heights of the chromatograms were recorded on a Perkin-Elmer LCI-100 Laboratory Computing Integrator. A reverse phase column, RP-8 Spheri-5, 4.6×100 mm and a guard column OD-GU, purchased from Brownlee Labs, were used in conjunction with the HPLC system. The flow rate was 1.0 ml/min and the solvent system was a mixture of acetonitrile (50%) and a 0.01 M phosphate buffer (pH 3.0) (50%).
The concentration in each sample was interpreted from a standard curve which was obtained by plotting the peak areas obtained from HPL chromatograms versus four different standard solutions of indomethacin. The standard curves were linear over a range of concentrations from 2.5 to 10 µg/ml. The receptor cell volume was calibrated by weighing the amount of water in the cell. The first sample needs no concentration correction. However, the concentration in the subsequent samples can be corrected by the following equation: [formula] where Xi is number of microgram of indomethacin in the i^th sample. Yi is the concentration correction for i-l sample. The volume withdrawn for each sampling is about 0.20 ml.
(§2) Statistical analyses were performed using the Student's t-test.
Relative penetration enhancements (%) were calculated by [formula]
Azone was selected as the for comparison since it is claimed to excellent enhancer although it is too toxic; was assigned a value of 100% enhancement.
Penetration that was equal the penetration of Azone was reported as 100% rela penetration. All of the relative enhancements in Table 3 are based on the early stage or hours o penetration studies.
At least 3 or 4 cells were used for each enhancer and mean val (μg) of indomethacin in the receptor cells are plotted versus time in hours.

[2] = format: in vitro ADME, black rat snake (Elahe obsoleta)
Method: Patches were prepared by first dissolving 300 mg indomethacin, 400 mg penetration enhancer, 300 mg polyethylene glycol 400 and 800 mg hydroxypropyl cellulose in 20 ml of ethanol. That viscous solution was spread on a backing layer, which was a film of ethoxycellulose, with 0.9 mm of thickness. After drying at 40° C. for one hour, two layer film patches were obtained. Circles with a diameter of 12 mm were used for the transport studies.
as §1, §2

[3] = intraperitoneal administration; cited from earlier work
[4] = indomethacin ointment, 5% enhancer, relative to Azone = 100%, early stage of penetration studies, 32° C.

Compound: CCCCCCCCCCOC(=O)CN(C)C [compound 3, decyl (N,N-dimethylamino)acetate]
- Relative Enhancement [1, 4]: 380%

Compound: CCCCCCCCCCCCO [dodecyl alcohol, reference compound]
- steady state flux for indomethacin [2]: 1.49 ± 0.21 µg/h
- time to reach steady state flux of indomethacin [2]: about 5 hours

Compound: CCCCCCCCOC(=O)CN(C)C [Compound No. 4, octyl (N,N-dimethylamino)acetate]
- Relative Enhancement [1]: 250%

Compound: CCCCCCCCCCOC(=O)CN1CCN(C)CC1 [Compound No. 6, Decyl (4-methyl-1-piperazinyl)acetate]
- Relative Enhancement [1, 4]: 40%

Compound: CCCCCCCCCCCCN1CCCCCC1=O [Azone, 1-Dodecylazacycloheptane-2-One, reference compound]
- Relative Enhancement [1]: 100%
- indomethacin detected in receptor cells ([1]; ointment, early stage of less than 12 hours): only a few
- LD50 [3]: approximately 232 mg/kg

Compound: CCCCCCCCCCCCOC(=O)CN(C)C [Compound No. 2, dodecyl (N,N-dimethylamino)acetate]
- Relative Enhancement [1]: 200%
- speed of effect compared with Azone [1]: faster than that of Azone
- transport of indomethacin compared with that accelerated by Azone [1]: twice
- steady state flux for indomethacin [2]: 3.84 ± 0.57 µg/h
- steady state flux ratio versus dodecyl alcohol [2]: 2.5 times
- time to reach steady state flux of indomethacin [2]: about 2 hours

Compound: CCCCCCCCCCCCCCOC(=O)CN(C)C [Compound No. 1, tetradecyl (N,N-dimethylamino)acetate]
- Relative Enhancement [1, 4]: 100%

Compound: CCCCCCCCCCCCOC(=O)CN(CC)CC [Compound No. 5, dodecyl (N,N-diethylamino)acetate]
- Relative Enhancement [1, 4]: 70%
